# Measurements published in patent publication US20040198731A1, “Aminoalkyl-substituted aromatic bicyclic compounds, methods for their preparation and their use as pharmaceuticals” (Aventis Pharma Deutschland GmbH, priority 2001, published 2004).
# Target: T1, human MCH receptor (Homo sapiens, UniProt Q99705)
# T1 construct: expressed in transfected cells
# Test: Functional measurement of cellular calcium flow (FLIPR) in recombinant HEK293 cells expressing human MCH receptor
# Assay type: cell-based
# Settings: cellular assay, calcium flow after addition of agonist (MCH), HEK293 (PEAK Stable Cells) expressing human MCH receptor
# Excerpt: In two simultaneously published articles in Nature (Nature, 400:261-264, 1999; Nature, 400:265-269, 1999, see enclosure), two groups separately described a highly specific receptor for melanin-concentrating hormone (MCH). MCH takes over important functions in the control of food intake. Compounds acting on the MCH receptor therefore have anorectic action and are suitable for the treatment of obesity. The test for anorectic action of the inventive compounds of formula I was therefore carried out as follows.
# Functional measurements for determination of IC50
# Cloning of the cDNA for human MCH receptor, preparation of a recombinant HEK293 cell line expressing human MCH receptor and functional measurements with said recombinant cell line were carried out according to the description by Audinot et al. (J. Biol. Chem., 276, 13554-13562, 2001). In contrast to the reference, however, plasmid pEAK8 from EDGE Biosystems (USA) was used for constructing the expression vector. A transformed HEK cell line named “PEAK Stable Cells” (likewise from EDGE Biosystems) served as host for transfection. The functional measurements of cellular calcium flow, after addition of agonists (MCH), in the presence of the ligand of the invention was carried out with the aid of the FLIPR instrument from Molecular Devices (USA), using the manufacturer's protocols.
# T1 sequence (Q99705 whole entry): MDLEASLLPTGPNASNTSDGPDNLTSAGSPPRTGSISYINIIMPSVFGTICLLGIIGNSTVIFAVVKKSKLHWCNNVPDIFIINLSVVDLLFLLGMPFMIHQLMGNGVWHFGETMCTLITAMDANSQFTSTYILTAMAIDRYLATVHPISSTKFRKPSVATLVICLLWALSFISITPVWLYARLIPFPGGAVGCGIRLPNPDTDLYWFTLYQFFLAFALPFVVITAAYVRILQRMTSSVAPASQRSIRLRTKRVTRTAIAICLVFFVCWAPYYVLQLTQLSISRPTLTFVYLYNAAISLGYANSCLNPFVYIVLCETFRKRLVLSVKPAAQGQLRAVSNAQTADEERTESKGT
row,SMILES,IC50 [nM]
1,"CCCCOc1ccc(NC(=O)Nc2ccc3c(ccn3CCN(C)C)c2)cc1 [Example 2, 1-(4-Butoxyphenyl)-3-[1-(2-dimethylaminoethyl)-1H-indol-5-yl]urea]",150
2,"Cn1c(CN2CCCC2)cc2cc(NC(=O)Nc3ccc(Oc4ccccc4)cc3)ccc21 [Example 3, 1-(1-Methyl-2-pyrrolidin-1-ylmethyl-1H-indol-5-yl)-3-(4-phenoxyphenyl)urea]",290
3,"Cc1nc2cc(NC(=O)Nc3ccc(OC(C)C)cc3)ccc2n1CCN(C)C [Example 5, 1-[1-(2-Dimethylaminoethyl)-2-methyl-1H-benzoimidazol-5-yl]-3-(4-isopropoxyphenyl)urea]",500
4,"CCN1CCCC1Cn1c(C)nc2cc(NC(=O)Nc3ccc(OC(C)C)cc3)ccc21 (centres unmarked) [Example 6, 1-[1-(1-Ethylpyrrolidin-2-ylmethyl)-2-methyl-1H-benzoimidazol-5-yl]-3-(4-isopropoxyphenyl)urea]",2340
5,"Cc1nc2cc(NC(=O)Nc3ccc(OC(C)C)cc3)ccc2n1CCN1CCCCC1 [Example 7, 1-(4-Isopropoxyphenyl)-3-[2-methyl-1-(2-piperidin-1-ylethyl)-1H-benzoimidazol-5-yl]urea]",450
6,"Cc1nc2cc(NC(=O)Nc3ccc(OC(C)C)cc3)ccc2n1CCN1CCOCC1 [Example 8, 1-(4-Isopropoxyphenyl)-3-[2-methyl-1-(2-morpholin-4-yl-ethyl)-1H-benzoimidazol-5-yl]urea]",1900
7,Cc1nc2cc(NC(=O)Nc3ccc(Oc4ccccc4)cc3)ccc2n1CCN1CCCC1 [Example 9],100
8,"Cc1nc2cc(NC(=O)Nc3ccc(Oc4ccccc4)cc3)ccc2n1CCN(C)C [Example 10, 1-[2-Methyl-1-(2-dimethylaminoethyl)-1H-benzoimidazol-5-yl]-3-(4-phenoxyphenyl)urea]",110
9,"O=C(Nc1ccc(Oc2ccccc2)cc1)Nc1ccc2c(c1)ncn2CCN1CCCC1 [Example 11, 1-(4-Phenoxyphenyl)-3-[1-(2-pyrrolidin-1-ylethyl)-1H-benzoimidazol-5-yl]urea]",140

# The next lines start with the values.
row,IC50 [nM],SMILES
1,2500,"CN(C)CCn1c(-c2ccccc2)nc2cc(NC(=O)Nc3ccc(Oc4ccccc4)cc3)ccc21 [Example 13, 1-[1-(2-Dimethylaminoethyl)-2-phenyl-1H-benzoimidazol-5-yl]-3-(4-phenoxyphenyl)urea]"
2,300,"CCc1nc2cc(NC(=O)Nc3ccc(Oc4ccccc4)cc3)ccc2n1CCN1CCCC1 [Example 14, 1-[2-Ethyl-1-(2-pyrrolidin-1-ylethyl)-1H-benzoimidazol-5-yl]-3-(4-phenoxyphenyl)urea]"
3,180,"Cc1nc2cc(NC(=O)Nc3ccc(Oc4ccccc4)cc3)ccc2n1CCN1CCCCC1 [Example 15, 1-[2-Methyl-1-(2-piperidin-1-ylethyl)-1H-benzoimidazol-5-yl]-3-(4-phenoxyphenyl) urea]"
4,330,"CCN1CCCC1Cn1c(C)nc2cc(NC(=O)Nc3ccc(Oc4ccccc4)cc3)ccc21 (centres unmarked) [Example 16, 1-[1-(1-Ethylpyrrolidin-2-ylmethyl)-2-methyl-1H-benzoimidazol-5-yl]-3-(4-phenoxy-phenyl)urea]"
5,2140,"CN(C)Cc1nc2cc(NC(=O)Nc3ccc(Oc4ccccc4)cc3)ccc2[nH]1 [Example 17, 1-(2-Dimethylaminomethyl-1H-benzoimidazol-5-yl)-3-(4-phenoxyphenyl)urea]"
6,1040,"Cc1c(C)n(CCN(C)C)c2ccc(NC(=O)Nc3ccc(Oc4ccccc4)cc3)cc12 [Example 18, 1-[1-(2-Dimethylaminoethyl)-2,3-dimethyl-1H-indol-5-yl]-3-(4-phenoxyphenyl)urea]"
7,700,"Cc1cc2cc(NC(=O)Nc3ccc(Oc4ccccc4)cc3)ccc2n1CCN(C)C [Example 19, 1-[1-(2-Dimethylaminoethyl)-2-methyl-1H-indol-5-yl]-3-(4-phenoxyphenyl)urea]"
8,4420,"CN(C)CCn1ccc2cc(NC(=O)Nc3ccc(N4CCCC4)cc3)ccc21 [Example 22, 1-[1-(2-Di-methylaminoethyl)-1H-in-dol-5-yl]-3-(4-pyr-rolidin-1-ylphe-nyl)urea]"
